In US9676714B2, “Sulfonylindole derivatives and method for preparing the same” (Daewoong Pharmaceutical Co., Ltd., priority 2013, dated 2017):
Counter-ions that a name gives are not always drawn.

Biological target: T1, proton pump (H+/K+-ATPase) (Sus scrofa, UniProt P19156)
T1 construct: Gastric vesicles were prepared from hog stomach via centrifugal separation; from tissue; host or cells: hog stomach (gastric vesicles, method of Rabon et al. 1988)
Assay: Measurement of inhibitory effects on proton pump (H+/K+-ATPase) activities
Type: biochemical
Conditions: hog gastric vesicles, K+-specific H+/K+-ATPase activity, Tris-HCl buffer pH 7.4, 37° C. for 40 minutes, malachite green Pi readout
Method in brief: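 Hog gastric vesicles in 60 mmol/l Tris-HCl pH 7.4 with 0.5% DMSO were treated with compounds at room temperature; reaction was started with 10 μl of 10 mmol/l ATP stock. Released Pi was read at 570 nm, K+-specific activity taken as the ±K+ difference. IC50 from 4-parameter logistic fit.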

T1 sequence (P19156 whole entry): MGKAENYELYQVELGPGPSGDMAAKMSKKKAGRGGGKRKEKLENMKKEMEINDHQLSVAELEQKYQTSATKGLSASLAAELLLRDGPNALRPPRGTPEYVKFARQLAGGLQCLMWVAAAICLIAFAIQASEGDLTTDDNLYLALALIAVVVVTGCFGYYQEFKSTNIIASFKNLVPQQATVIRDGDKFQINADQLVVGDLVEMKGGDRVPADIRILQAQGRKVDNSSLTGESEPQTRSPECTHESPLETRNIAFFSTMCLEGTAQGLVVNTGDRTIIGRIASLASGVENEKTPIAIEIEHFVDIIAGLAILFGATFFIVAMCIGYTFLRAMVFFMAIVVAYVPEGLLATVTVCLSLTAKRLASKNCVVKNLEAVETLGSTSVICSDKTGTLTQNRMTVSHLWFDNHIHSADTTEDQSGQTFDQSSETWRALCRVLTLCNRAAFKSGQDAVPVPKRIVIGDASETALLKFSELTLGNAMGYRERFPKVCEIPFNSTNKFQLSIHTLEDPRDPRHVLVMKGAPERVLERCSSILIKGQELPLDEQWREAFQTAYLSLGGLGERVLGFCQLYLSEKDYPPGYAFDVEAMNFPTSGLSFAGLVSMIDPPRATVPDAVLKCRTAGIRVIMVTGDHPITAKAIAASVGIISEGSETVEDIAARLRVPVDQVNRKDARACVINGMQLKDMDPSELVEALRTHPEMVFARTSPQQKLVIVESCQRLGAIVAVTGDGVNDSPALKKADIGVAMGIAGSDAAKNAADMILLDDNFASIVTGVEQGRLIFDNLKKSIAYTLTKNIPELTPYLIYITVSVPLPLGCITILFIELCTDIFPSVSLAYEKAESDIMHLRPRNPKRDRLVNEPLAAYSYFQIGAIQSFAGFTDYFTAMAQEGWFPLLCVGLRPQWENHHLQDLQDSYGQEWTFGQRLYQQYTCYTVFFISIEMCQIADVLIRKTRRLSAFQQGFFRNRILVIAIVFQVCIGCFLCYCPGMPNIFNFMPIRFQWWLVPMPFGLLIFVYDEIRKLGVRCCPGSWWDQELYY
T1 sequence (P18434 whole entry partner): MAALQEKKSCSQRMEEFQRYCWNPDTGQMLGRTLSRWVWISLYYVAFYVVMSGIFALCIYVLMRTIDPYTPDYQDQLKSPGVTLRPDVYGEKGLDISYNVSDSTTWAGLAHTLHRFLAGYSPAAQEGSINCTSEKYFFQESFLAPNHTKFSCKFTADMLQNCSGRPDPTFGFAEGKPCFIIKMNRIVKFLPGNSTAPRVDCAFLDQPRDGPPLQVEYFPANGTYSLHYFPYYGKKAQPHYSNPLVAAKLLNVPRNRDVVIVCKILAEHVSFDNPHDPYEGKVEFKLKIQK

IC50 | Compound
1340 nM | CNCc1cn(S(=O)(=O)c2ccc(OC(F)F)cc2)c2cc(Cc3ccc(C)cc3Cl)ccc12 [Example 308, 1-(6-(2-chloro-4-methylbenzyl)-1-((4-(difluoromethoxy)phenyl)sulfonyl)-1H-indol-3-yl)-N-methylmethanamine]
480 nM | CNCc1cn(S(=O)(=O)c2cccnc2)c2cc(Nc3c(F)c(F)cc(F)c3F)ccc12 [Example 95, 3-((methylamino)methyl)-1-(pyridin-3-ylsulfonyl)-N-(2,3,5,6-tetrafluorophenyl)-1H-indol-6-amine hydrochloride]
1410 nM | CNCc1cn(S(=O)(=O)c2cccc(OC(F)F)c2)c2cc(Nc3ccc(Cl)cc3C(F)(F)F)ccc12 [Example 177, N-(4-chloro-2-(trifluoromethyl)phenyl)-1-((3-(difluoromethoxy)phenyl)sulfonyl)-3-((methylamino)methyl)-1H-indol-6-amine hydrochloride]
140 nM | CNCc1cn(S(=O)(=O)c2cccc(OC)c2)c2cc(Nc3ccc(C)cc3Cl)ccc12 [Example 163, N-(2-chloro-4-methylphenyl)-1-((3-methoxyphenyl)sulfonyl)-3-((methylamino)methyl)-1H-indol-6-amine hydrochloride]
460 nM | CNCc1cn(S(=O)(=O)c2cccc(Cl)c2)c2cc(Nc3ccc(C(F)(F)F)nc3Cl)ccc12 [Example 161, N-(2-chloro-6-(trifluoromethyl)pyridin-3-yl)-1-((3-chlorophenyl)sulfonyl)-3-((methylamino)methyl)-1H-indol-6-amine hydrochloride]
68000 nM | CN(C)C(=O)c1cn(S(=O)(=O)c2cccnc2)c2cc(Nc3ccc(C(F)(F)F)cc3Cl)ccc12 [Example 325, 6-((2-chloro-4-(trifluoromethyl)phenyl)amino)-N,N-dimethyl-1-(pyridin-3-ylsulfonyl)-1H-indol-3-carboxamide]
1470 nM | CNCc1cn(S(=O)(=O)c2cccc(Cl)c2Cl)c2cc(Nc3ccc(C)cc3F)ccc12 [Example 234, 1-((2,3-dichlorophenyl)sulfonyl)-N-(2-fluoro-4-methylphenyl)-3-((methylamino)methyl)-1H-indol-6-amine hydrochloride]
130 nM | CNCc1cn(S(=O)(=O)c2cccnc2)c2cc(Nc3ccc(C#N)cc3Cl)ccc12 [Example 39, 3-chloro-4-((3-((methylamino)methyl)-1-(pyridin-3-ylsulfonyl)-1H-indol-6-yl)amino)benzonitrile hydrochloride]
3850 nM | CNCc1cn(S(=O)(=O)c2ccc(OC)nc2)c2cc(Nc3ccc(C)cc3F)ccc12 [Example 242, N-(2-fluoro-4-methylphenyl)-1-((6-methoxypyridin-3-yl)sulfonyl)-3-((methylamino)methyl)-1H-indol-6-amine hydrochloride]
350 nM | CNCc1cn(S(=O)(=O)c2cncc(F)c2)c2cc(Nc3ccc(F)cc3C)cnc12 [Example 351, N-(4-fluoro-2-methylphenyl)-1-((5-fluoropyridin-3-yl)sulfonyl)-3-((methylamino)methyl)-1H-pyrrolo[3,2-b]pyridin-6-amine hydrochloride]
190 nM | CNCc1cn(S(=O)(=O)c2cccc(F)c2)c2cc(Nc3ccc(OC(F)(F)F)cc3C)ccc12 [Example 140, 1-((3-fluorophenyl)sulfonyl)-N-(2-methyl-4-(trifluoromethoxy)phenyl)-3-((methylamino)methyl)-1H-indol-6-amine hydrochloride]
1180 nM | CNCc1cn(S(=O)(=O)c2cccnc2)c2cc(Nc3cccc(F)c3)ccc12 [Example 6, N-(3-fluorophenyl)-3-((methylamino)methyl)-1-(pyridin-3-ylsulfonyl)-1H-indol-6-amine hydrochloride]
220 nM | CNCc1cn(S(=O)(=O)c2cccnc2)c2cc(Nc3ccc(F)cc3C)ccc12 [Example 23, N-(4-fluoro-2-methylphenyl)-3-((methylamino)methyl)-1-(pyridin-3-ylsulfonyl)-1H-indol-6-amine hydrochloride]
670 nM | CNCc1cn(S(=O)(=O)c2cccnc2)c2cc(Cc3ccc(C(F)(F)F)cc3Cl)ccc12 [Example 276, 1-(6-(2-chloro-4-(trifluoromethyl)benzyl)-1-(pyridin-3-ylsulfonyl)-1H-indol-3-yl)-N-methylmethanamine hydrochloride]
330 nM | CNCc1cn(S(=O)(=O)c2cccnc2)c2cc(Oc3ccccc3[N+](=O)[O-])ccc12 [Example 310, N-methyl-1-(6-(2-nitrophenoxy)-1-(pyridin-3-ylsulfonyl)-1H-indol-3-yl)methanamine hydrochloride]
1300 nM | CNCc1cn(S(=O)(=O)c2cccnc2)c2cc(Nc3ccc(C)nc3C(F)(F)F)ccc12 [Example 115, N-(6-methyl-2-(trifluoromethyl)pyridin-3-yl)-3-((methylamino)methyl)-1-(pyridin-3-ylsulfonyl)-1H-indol-6-amine hydrochloride]
1500 nM | CNCc1cn(S(=O)(=O)c2cccc(OC)c2)c2cc(Nc3ccc(C)nc3Cl)ccc12 [Example 172, N-(2-chloro-6-methylpyridin-3-yl)-1-((3-methoxyphenyl)sulfonyl)-3-((methylamino)methyl)-1H-indol-6-amine hydrochloride]

IC50 | Compound
3380 nM | CNCc1cn(S(=O)(=O)c2cccnc2)c2cc(Nc3cccnc3F)ccc12 [Example 106, N-(2-fluoropyridin-3-yl)-3-((methylamino)methyl)-1-(pyridin-3-ylsulfonyl)-1H-indol-6-amine hydrochloride]
1510 nM | CNCc1cn(S(=O)(=O)c2cccnc2)c2cc(Nc3c(F)cc(Br)cc3F)ccc12 [Example 92, N-(4-bromo-2,6-difluorophenyl)-3-((methylamino)methyl)-1-(pyridin-3-ylsulfonyl)-1H-indol-6-amine hydrochloride]
490 nM | CNCc1cn(S(=O)(=O)c2cccnc2)c2cc(-c3ccc(C)cc3Cl)ccc12 [Example 253, 1-(6-(2-chloro-4-methylphenyl)-1-(pyridin-3-ylsulfonyl)-1H-indol-3-yl)-N-methylmethanamine hydrochloride]
950 nM | CNCc1cn(S(=O)(=O)c2cccc(F)c2)c2cc(Nc3ccc(Cl)nc3Cl)ncc12 [Example 357, N-(2,6-dichloropyridin-3-yl)-1-((3-fluorophenyl)sulfonyl)-3-((methylamino)methyl)-1H-pyrrolo[3,2-c]pyridin-6-amine hydrochloride]
200 nM | CNCc1cn(S(=O)(=O)c2cccnc2)c2cc(Nc3ccc(C)cc3)ccc12 [Example 10, 3-((methylamino)methyl)-1-(pyridin-3-ylsulfonyl)-N-(p-tolyl)-1H-indol-6-amine hydrochloride]
480 nM | CNCc1cn(S(=O)(=O)c2cccnc2)c2cc(Nc3ccc(Cl)nc3C)ccc12 [Example 118, N-(6-chloro-2-methylpyridin-3-yl)-3-((methylamino)methyl)-1-(pyridin-3-ylsulfonyl)-1H-indol-6-amine hydrochloride]
20000 nM | CNCc1cn(S(=O)(=O)c2cccnc2)c2cc(-c3ccc(OC)nc3)ccc12 [Example 248, 1-(6-(6-methoxypyridin-3-yl)-1-(pyridin-3-ylsulfonyl)-1H-indol-3-yl)-N-methylmethanamine]
1220 nM | CNCc1cn(S(=O)(=O)c2cccnc2)c2cc(Nc3ccncc3Cl)ccc12 [Example 128, N-(3-chloropyridin-4-yl)-3-((methylamino)methyl)-1-(pyridin-3-ylsulfonyl)-1H-indol-6-amine hydrochloride]
120 nM | CNCc1cn(S(=O)(=O)c2cccnc2)c2cc(Nc3ccc(C)cc3Cl)cnc12 [Example 345, N-(2-chloro-4-methylphenyl)-3-((methylamino)methyl)-1-(pyridin-3-ylsulfonyl)-1H-pyrrolo[3,2-b]pyridin-6-amine hydrochloride]
1000 nM | CNCc1cn(S(=O)(=O)c2cccc(C(F)(F)F)c2)c2cc(Nc3ccc(Cl)cc3F)ccc12 [Example 185, N-(4-chloro-2-fluorophenyl)-3-((methylamino)methyl)-1-((3-(trifluoromethyl)phenyl)sulfonyl)-1H-indol-6-amine hydrochloride]
1920 nM | CCNCc1cn(S(=O)(=O)c2cccc(C(F)(F)F)c2)c2cc(Nc3ccc(OC)nc3Cl)ccc12 [Example 317, N-(2-chloro-6-methoxypyridin-3-yl)-3-((ethylamino)methyl)-1-((3-(trifluoromethyl)phenyl)sulfonyl)-1H-indol-6-amine]
780 nM | CNCc1cn(S(=O)(=O)c2cccnc2)c2cc(Nc3cc(-c4ccccc4)ccc3C)ccc12 [Example 16, N-(4-methyl-[1,1′-biphenyl]-3-yl)-3-((methylamino)methyl)-1-(pyridin-3-ylsulfonyl)-1H-indol-6-amine hydrochloride]
3210 nM | CNCc1cn(S(=O)(=O)c2cccnc2)c2cc(Nc3ccc(C)nc3C)ccc12 [Example 111, N-(2,6-dimethylpyridin-3-yl)-3-((methylamino)methyl)-1-(pyridin-3-ylsulfonyl)-1H-indol-6-amine hydrochloride]
780 nM | CNCc1cn(S(=O)(=O)c2cccc(OC)c2)c2cc(Cc3ccc(C)c(F)c3F)ccc12 [Example 289, 1-(6-(2,3-difluoro-4-methylbenzyl)-1-((3-methoxyphenyl)sulfonyl)-1H-indol-3-yl)-N-methylmethanamine]
660 nM | CNCc1cn(S(=O)(=O)c2cccnc2)c2cc(Cc3ccc(OC)nc3Cl)ccc12 [Example 291, 1-(6-((2-chloro-6-methoxypyridin-3-yl)methyl)-1-(pyridin-3-ylsulfonyl)-1H-indol-3-yl)-N-methylmethanamine hydrochloride]
280 nM | CNCc1cn(S(=O)(=O)c2cccnc2)c2cc(Nc3ccc(Cl)cc3Cl)cnc12 [Example 349, N-(2,4-dichlorophenyl)-3-((methylamino)methyl)-1-(pyridin-3-ylsulfonyl)-1H-pyrrolo[3,2-b]pyridin-6-amine hydrochloride]
